The results in this text go back to publication PMC9655341 (Molecules, 2022).

Molecules are shown by their SMILES. Some results are limits rather than exact numbers.

The target in data set [1] is T1, human MT2 melatonin receptor (Homo sapiens, UniProt P49286).
T1 construct: expressed in transfected cells; host or cells: CHO (Chinese hamster ovary) cells, stably transfected
T1 sequence (P49286 1-362): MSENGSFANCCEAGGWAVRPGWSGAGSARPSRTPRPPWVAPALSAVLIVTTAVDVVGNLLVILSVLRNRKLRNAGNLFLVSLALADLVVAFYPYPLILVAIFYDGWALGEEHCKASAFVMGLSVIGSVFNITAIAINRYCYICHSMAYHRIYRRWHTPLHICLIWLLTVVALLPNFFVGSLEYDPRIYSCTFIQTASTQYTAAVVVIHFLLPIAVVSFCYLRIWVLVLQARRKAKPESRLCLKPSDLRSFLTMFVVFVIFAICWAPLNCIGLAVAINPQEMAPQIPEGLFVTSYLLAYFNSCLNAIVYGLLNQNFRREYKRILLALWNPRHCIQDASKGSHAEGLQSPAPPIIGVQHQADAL
The data set is described as follows: Radioligand binding assay at human MT2 (MDS Pharma Services), 2-[125I]iodomelatonin. As to conditions: for IC50 / Ki / nH (Hill coefficient): MT2; for inhibition at 50 pM: MT2, concentration 0.05 nM; for inhibition at 0.001 µM: MT2, concentration 1 nM; for inhibition at 1 µM: MT2, concentration 1 µM. The method, then: The newly synthesized indole derivatives were evaluated for their binding affinity and intrinsic activity at human MT1 and MT2 receptors stably transfected in Chinese hamster ovary (CHO) cells using 2-[^125I]iodomelatonin as a radioligand, and the results are shown in Table 5 and Table 6.

Data set [2] concerns the target T2, human MT1 melatonin receptor (Homo sapiens, UniProt P48039).
T2 construct: expressed in transfected cells; host or cells: CHO (Chinese hamster ovary) cells, stably transfected
The data set is described as follows: Radioligand binding assay at human MT1 (MDS Pharma Services), 2-[125I]iodomelatonin. As to conditions: for inhibition at 50 pM: MT1, concentration 0.05 nM; for inhibition at 0.001 µM: MT1, concentration 1 nM; for inhibition at 1 µM: MT1, concentration 1 µM.

Data set [3] deals with T3, human MT1 receptors (Homo sapiens, UniProt P48039).
T3 construct: expressed in transfected cells; host or cells: CHO (Chinese hamster ovary) cells, stably transfected
T3 sequence (P48039 whole entry): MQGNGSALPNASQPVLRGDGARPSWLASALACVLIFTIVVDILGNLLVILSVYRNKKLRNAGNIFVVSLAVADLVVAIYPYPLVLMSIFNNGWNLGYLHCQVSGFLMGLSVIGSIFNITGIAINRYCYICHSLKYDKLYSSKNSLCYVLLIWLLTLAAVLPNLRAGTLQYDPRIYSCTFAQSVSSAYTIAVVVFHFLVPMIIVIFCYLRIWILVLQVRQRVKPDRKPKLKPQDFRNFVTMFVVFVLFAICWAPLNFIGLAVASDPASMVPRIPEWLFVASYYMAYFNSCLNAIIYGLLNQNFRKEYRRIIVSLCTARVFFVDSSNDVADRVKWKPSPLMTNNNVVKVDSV
The data set is described as follows: Binding affinity at human MT1 receptors stably transfected in CHO cells, 2-[125I]iodomelatonin. As to conditions: read-out: MT1 pKi (Mean ± SD) (converted).

The target in data set [4] is T4, human MT2 receptors (Homo sapiens, UniProt P49286).
T4 construct: expressed in transfected cells; host or cells: CHO (Chinese hamster ovary) cells, stably transfected
T4 sequence (P49286 1-362): T1 sequence (P49286 1-362)
Briefly: Binding affinity at human MT2 receptors stably transfected in CHO cells, 2-[125I]iodomelatonin. As to conditions: read-out: MT2 pKi (Mean ± SD) (converted).

In data set [5] the target is T3, human MT1 receptors. The data set is described as follows: Intrinsic activity at human MT1 receptors stably transfected in CHO cells. It is filed as biochemical. Particulars: MT1, melatonin = 1.00.
Data set [6] concerns the target T4, human MT2 receptors. The data set is described as follows: Intrinsic activity at human MT2 receptors stably transfected in CHO cells. The class given is biochemical. As to conditions: MT2, melatonin = 1.00.
Data set [7] is described as follows: Oxidation of 2,3-dihydroindoles in solution (NMR tube, storage in DMSO solution). It is filed as physicochemical. An excerpt:
Despite stability in the solid phase, the obtained 2,3-dihydroindoles are sensitive to oxidation in solution. Thus, the oxidation in the NMR tube occurred both in spiro and 3H-containing indolines, but led to different types of products. […] The compounds 8i,l,g were also partially converted to aromatic indoles 9i,l,g during purification by column chromatography.
[formula] Scheme 10 Oxidative conversion of 2,3-dihydroindoles during storage in DMSO solution.

T2 sequence (P48039 whole entry): as above

Consider `CCC(=O)NC1Cc2ccccc2C(c2ccccc2)C1` (stereo not drawn) [4-P-PDOT, reference compound], for which, in data set [1], the IC50 stood at 0.497 nM, the Ki stood at 0.258 nM and the “nH (Hill coefficient)” value came to 0.840.
As to `COc1ccc2c(c1)C(CCNC(C)=O)C(=O)N2` (stereo not drawn) [7a, N-[2-(5-methoxy-2-oxo-2,3-dihydro-1H-indol-3-yl)ethyl]acetamide], the IC50 in data set [2] (MT1) was over 1000 nM. Also, in data set [2], testing at 50 pM gave an inhibition of 4%, testing at 0.001 µM gave an inhibition of 3% and the inhibition at 1 µM turned out to be 46%. In data set [1], the IC50 amounted to 268 nM, the Ki was determined as 139 nM, the “nH (Hill coefficient)” value is 0.676 and 50 pM produced 4% inhibition. Also, in data set [1], the inhibition at 0.001 µM amounted to 3% and the inhibition at 1 µM stood at 71%.
For `COc1ccc2[nH]c(Cl)c(CCNC(C)=O)c2c1` [7d, 2-chloromelatonin], in data set [2] (MT1), the IC50 came to 0.138 nM, the Ki came out at 0.0716 nM and the “nH (Hill coefficient)” value is given as 0.925. In data set [2], this compound showed an inhibition at 50 pM of 28%, an inhibition at 0.001 µM of 86% and an inhibition at 1 µM of 100%. Besides, the “MT1 receptor binding activity compared with melatonin” value in data set [2] (MT1, in words) is on record as “more active than melatonin”. Further, in data set [1], the IC50 worked out at 0.338 nM, the Ki came to 0.176 nM, the “nH (Hill coefficient)” value was 1.01 and the inhibition at 50 pM turned out to be 13%. In data set [1], this compound yielded an inhibition at 0.001 µM of 75% and an inhibition at 1 µM of 98%.
Take `CC(=O)NCCC1(C)CN(C)c2ccccc21` (stereo not drawn) [8a, N-[2-(1,3-Dimethyl-2,3-dihydro-1H-indol-3-yl)ethyl]acetamide]: the Ki on human MT1 receptors [3] was 776 nM; on human MT2 receptors [4], 427 nM. The “MT1 Intrinsic Activity” value at human MT1 receptors [5] is 0.47 ± 0.10. The “MT2 Intrinsic Activity” value on human MT2 receptors [6] came to 0.74 ± 0.07.
For `CC(=O)NCCC1(C)CN(Cc2ccccc2)c2ccccc21` (stereo not drawn) [8b, N-[2-(1-Benzyl-3-methyl-2,3-dihydro-1H-indol-3-yl)ethyl]acetamide], in that order: 1740 nM, 72.4 nM, 0.33 ± 0.04 and 0.45 ± 0.04.
For `COc1ccc2c(c1)C(C)(CCNC(C)=O)CN2C` (stereo not drawn) [8e, N-[2-(1,3-Dimethyl-5-methoxy-2,3-dihydro-1H-indol-3-yl)ethyl]acetamide], in that order: 58.9 nM, 195 nM, 0.94 ± 0.10 and 0.96 ± 0.07.
The like results for `COc1ccc2c(c1)C(C)(CCNC(C)=O)CN2Cc1ccccc1` (stereo not drawn) [8f, N-[2-(1-Benzyl-3-methyl-5-methoxy-2,3-dihydro-1H-indol-3-yl)ethyl]acetamide] were, in that order, 112 nM, 46.8 nM, 0.63 ± 0.14 and 0.61 ± 0.03.
As to `COc1ccc2c(c1)C(CCNC(C)=O)CN2Cc1ccccc1` (stereo not drawn) [8h, N-[2-(1-Benzyl-5-methoxy-2,3-dihydro-1H-indol-3-yl)ethyl]acetamide], the Ki on human MT1 receptors [3] is 5.25 nM; on human MT2 receptors [4], 2.29 nM. Further, on human MT1 receptors [5], the “MT1 Intrinsic Activity” value is given as 1.04 ± 0.14. For the same compound, on human MT2 receptors [6], the “MT2 Intrinsic Activity” value is 0.85 ± 0.08.
For `CC(=O)NCCC1CN(C)c2c1ccc(C)c2C` (stereo not drawn) [8l, N-[2-(1,6,7-Trimethyl −2,3-dihydro-1H-indol-3-yl)ethyl]acetamide], in that order: 251 nM, 166 nM, 0.61 ± 0.15 and 0.83 ± 0.05.
Take `CC(=O)NCCC1CN(Cc2ccccc2)c2ccccc21` (stereo not drawn) [8m, N-[2-(1-Benzyl-2,3-dihydro-1H-indol-3-yl)ethyl]acetamide]: the “Stability to oxidation in solution” value in data set [7] is given as “aromatization of the indole ring occurred”.
Still for that read-out and setting: in the case of `CC(=O)NCC1CC12CN(C)c1ccccc12` (stereo not drawn) [10a, N-{1′-Methyl-1′,2′-dihydrospiro[cyclopropan-1,3′-indol]-3-ylmethyl}acetamide] it was “oxidized to 2-oxindole”.
Take `COc1ccc2[nH]cc(CCNC(C)=O)c2c1` [Melatonin, 3-(2-(acetylamino)ethyl)-5-methoxyindole, reference compound]: the “nH (Hill coefficient)” value in data set [2] (MT1) is on record as 0.774. The “MT1 Intrinsic Activity” value at human MT1 receptors [5] came out at 1.00 ± 0.03.
